Structures can show the parent of a compound that is named as a salt.

In the experiment the target is Cytosol aminopeptidase (Sus scrofa). Description: Binding affinity for cytosolic leucine aminopeptidase (LAP) from porcine kidney.

The term Ki denotes a dissociation constant, usually derived from enzyme kinetics or from competition with a known ligand. Lower therefore signals a stronger hold on the target. Take `CC(C)CC(N)C=O` (stereo not drawn) [2-Amino-4-methyl-pentanal]: the Ki was determined as 0.06 µM.

In turn, `CC(C)CC(OP(=O)(O)C(N)CC(C)C)C(=O)O` (stereo not drawn) [2-[(1-Amino-3-methyl-butyl)-hydroxy-phosphinoyloxy]-4-methyl-pentanoic acid] gave a Ki of 58 µM.

`CC(C)CC(O)P(=O)(O)NCC(=O)O` (stereo not drawn) [{[hydroxy(1-hydroxy-3-methylbutyl)phosphoryl]amino}acetic acid; dilithium salt]: the affinity, expressed as Ki, was 4.88 µM. Compared with the last molecule, the Ki is about 12-fold lower.

For the origin of these results see BindingDB's records for doi:10.1021/jm030795v (Wroclaw University of Technology, 2003).
